According to paper PMC3236741 (PLoS ONE, 2011):
Entries after “also recorded” stand apart in the source; their conditions may differ. Marks after values point to notes of the source that are not given here. Peptide text beside a SMILES is read from it.

Columns and labels:
[1] = ^125I-Ang-(1-12) metabolism by plasma membranes from human atrial appendage, HPLC with inline γ-detector; settings: human atrial plasma membrane 50 µg, 1 nmol/L substrate, 15 min pre-incubation, 60 min at 37°C, HPLC γ-detection, mean ± SEM, n = 9
Method: Membranes were prepared at 4°C in a manner similar to the approaches previously described by our laboratory [52] and by Urata et al. [26] Frozen atrial tissue (50–100 mg) was homogenized at 4°C in 1 mL PBS (pH 7.4) in a Qiagen TissueLyzer (Valencia, CA). The homogenate was centrifuged at low spin (200 g) for 5 min at 4°C to remove the connective tissues and cell debris. The supernatant was transferred into a new tube and centrifuged at 28,000 g for 20 min at 4°C to collect the plasma membrane. The pellet was resuspended in PBS and centrifuged as described above. Finally, the pellet was resuspended in PBS and stored at −80°C till its use for metabolism studies. The concentration of each cardiac membrane preparation is expressed in terms of protein concentration measured by Bradford Reagent using bovine serum albumin (BSA) as the standard; the results were normalized in terms of per mg protein.
For ^125I-Ang-(1-12) metabolism studies, plasma membranes (50 µg per reaction mixture) were preincubated for 15 min under various combinations of RAS and peptidases inhibitors (50 µM each). After preincubation of plasma membranes with the inhibitors, human ^125I-Ang-(1-12) (1 nmol/L; specific activity 3,900 cpm/fmol) was added to the reaction medium and incubated for an additional 60 min at 37°C. At the end of the incubation time, the reaction was stopped by adding equal volume of 1% phosphoric acid, mixed well, and centrifuged at 28,000 g for 20 min to remove the plasma membrane. […] On the day of HPLC analysis, the samples were filtered before separation by reverse-phase high-performance liquid chromatography. We used a linear gradient from 10% to 50% mobile phase B at a flow rate of 0.35 mL/min at ambient temperature. The solvent system consisted of 0.1% phosphoric acid (mobile phase A) and 80% acetonitriles/0.1% phosphoric acid (mobile phase B). The eluted ^125I products were monitored by an in-line flow-through gamma detector (BioScan Inc., Washington, DC). Products were identified by comparison of retention time of synthetic [^125I] standard peptides and the data were analyzed with Shimadzu LCSolution (Kyoto, Japan) acquisition software.

human leukocyte elastase = settings: cited from earlier work
[2] = plasma membrane of six human atrial tissues in 50 mM Tris buffer (pH 8.0) containing 1.5 M NaCl and 1% dimethylsulphoxide; settings: 37°C, up to 180 min
[3] = plasma membrane of six human atrial tissues in 50 mM Tris buffer (pH 8.0) containing 1.5 M NaCl and 1% dimethylsulphoxide, with chymostatin; settings: 37°C, up to 180 min
[4] = target: protein A purified polyclonal antibody directed to the COOH-terminus of human Ang-(1-12); test: Binding affinity and cross-reactivity of protein A purified polyclonal Ang-(1-12) antibody (IgG); settings: protein A purified polyclonal antibody (IgG) to human Ang-(1-12); cross-reactivity
Method: Left atrial tissues from human cardiac patient were fixed in 4% paraformaldehyde for 24 h and then transferred into 70% ethanol. After dehydration, the tissues were embedded in paraffin and each section was cut in 5-µm thick sections. Immunohistochemistry was performed using well characterized protein A purified polyclonal antibody directed to the COOH-terminus of full length of human Ang-(1-12) sequence [Asp^1-Arg^2-Val^3-Tyr^4-Ile^5-His^6-Pro^7-Phe^8-His^9-Leu^10-Val^11-Ile^12] (AnaSpec, San Jose, CA). The binding affinity and cross-reactivity of protein A purified antibody (IgG) was checked for human Ang-(1-12) and small Ang peptides [Ang I, Ang II and Ang-(1-7)]. […] The antibody was independently used to detect immunoreactive Ang-(1-12) in human atrial tissue using the avidin-biotin horseradish peroxidase techniques as previously reported by our laboratory, [11]. Briefly, slides were deparaffinized in xylene (15 min), subsequently dipped in ethanol (100%, 95% and 75%, respectively) and washed in double distilled water. The clear slides were incubated in 3% hydrogen peroxide to block the endogenous peroxidase. […]

[5] = plasma membrane (50 µg) isolated from human atrial appendage, Minus Lisinopril group; settings: 37°C, up to 60 min
[6] = plasma membrane (50 µg) isolated from human atrial appendage, Minus Chymostatin group; settings: 37°C, up to 60 min
[7] = plasma membrane (50 µg) isolated from human atrial appendage, No RAS inhibitors group; settings: 37°C, up to 60 min
[8] = plasma membrane (50 µg) isolated from human atrial appendage, All RAS inhibitors group; settings: 37°C, up to 60 min
chymase = target: T1, chymase (Homo sapiens, UniProt P23946); test: Hydrolysis of colorimetric substrate N-suc-AAPF-pNA by human plasma membrane with or without chymostatin; format: biochemical; settings: chymostatin 50 µM; 1 mM N-suc-AAPF-pNA; 50 mM Tris pH 8.0, 1.5 M NaCl, 1% DMSO; 37°C, 0–180 min; absorbance 410 nm; six human atrial tissues
T1 construct: hydrolysis of 1 mM N-suc-AAPF-pNA in the plasma membrane of six human atrial tissues; from tissue; host or cells: human left atrial appendage tissue, plasma membrane fraction
T1 sequence (P23946 22-247): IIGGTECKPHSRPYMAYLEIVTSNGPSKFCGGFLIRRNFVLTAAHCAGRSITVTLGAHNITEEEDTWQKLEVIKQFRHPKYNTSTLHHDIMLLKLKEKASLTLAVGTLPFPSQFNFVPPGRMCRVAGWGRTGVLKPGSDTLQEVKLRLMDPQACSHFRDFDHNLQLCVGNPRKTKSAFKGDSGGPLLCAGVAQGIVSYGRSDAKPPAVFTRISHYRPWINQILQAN
Method: Chymase activity was also monitored by evaluating the hydrolysis of 1 mM N-suc-AAPF-pNA in the plasma membrane of six human atrial tissues. Briefly, all assays were performed in a total reaction volume of 200 µL in the 96-well microtiter plates containing plasma membranes with or without the presence of chymostatin (chymase inhibitor; 50 µM) as described above in 50 mM Tris buffer (pH 8.0) containing 1.5 M NaCl and 1% dimethylsulphoxide. The increase in absorbance at 410 nm was measured at 37°C for different time points (0–180 min) for the released p-nitroaniline. In addition, Ang II formation from ^125I-Ang-(1-12) was also investigated in the absence and in the presence of TEI-F00806 (100 µM; an orally active chymase-specific inhibitor provided by Teijin Pharma, Tokyo, Japan). Briefly, plasma membranes isolated from human atrial tissue (50 µg per reaction mixture) and ^125I-Ang-(1-12) were incubated in the presence or absence of TEI-F00806 (as described above for chymostatin) for 37°C for 60 min. At the end of incubation, samples were analyzed by HPLC for Ang II formation from ^125I-Ang-(1-12).

[9] = tested on: Ang I induced carotid artery vasoconstriction; settings: administration of chymostatin in enalapril-treated SHR rats; ref Becari et al. [30]; cited from earlier work
Text: A critical role for chymase in accounting for the processing of Ang-(1-12) is reinforced through the corresponding consistency of the chymase activity measured in each of the human samples. Since the atrial tissue employed in these studies was obtained from subjects undergoing cardiac surgery for the treatment of heart rhythm disorders (Table 2), we cannot exclude the possibility that the relatively high chymase activity reflects increased expression of this enzyme in this condition. Although an increase in cardiac chymase activity has been reported in both clinical and experimental forms of h ...

## CC[C@H](C)[C@H](NC(=O)[C@@H](NC(=O)[C@H](CC(C)C)NC(=O)[C@H](Cc1c[nH]cn1)NC(=O)[C@H](Cc1ccccc1)NC(=O)[C@@H]1CCCN1C(=O)[C@H](Cc1c[nH]cn1)NC(=O)[C@@H](NC(=O)[C@H](Cc1ccc(O)cc1)NC(=O)[C@@H](NC(=O)[C@H](CCCNC(=N)N)NC(=O)[C@@H](N)CC(=O)O)C(C)C)[C@@H](C)CC)C(C)C)C(=O)O [Ang-(1-12), angiotensin-(1-12)] (H-DRVYIHPFHLVI-OH)
[1]; All RAS inhibitors (plus lisinopril, SCH39370, MLN-4760, chymostatin; 50 µM each)
  Percent of ^125I-Ang-(1-12) parent control remained unmetabolized: 98±7%
[1]; Minus chymostatin (all inhibitors except chymase inhibitor; 50 µM each)
  Percent of ^125I-Ang-(1-12) parent control remained unmetabolized: 31±13 ^a %
[1]; Minus lisinopril (all inhibitors except ACE inhibitor; 50 µM each)
  Percent of ^125I-Ang-(1-12) parent control remained unmetabolized: 98±5%
[1]; NO RAS inhibitors (only amastatin, bestatin, benzyl succinate, PCMB; 50 µM each)
  Percent of ^125I-Ang-(1-12) parent control remained unmetabolized: 22±10 ^a %

## N-Succinyl-Ala-Ala-Pro-Phe-p-nitroanilide
Human leukocyte elastase
  not cleaved: not hydrolyzed by human leukocyte elastase
[2]
  fragment found: p-nitroaniline
[3]
  not cleaved: hydrolysis completely blocked in the presence of chymostatin

## angiotensin II (DRVYIHPF; Angiotensin-2; UniProt P01019 25-32, looked up) [Ang II, angiotensin peptide, main metabolic product of ^125I-Ang-(1-12)]
[4]
  EC50: 0.28 ± 0.02 nM

## H-Asp^1-Arg^2-Val^3-Tyr^4-Ile^5-His^6-Pro^7-Phe^8-His^9-Leu^10-Val^11-Ile^12-OH
[5]
  fragment found: Ang II, minor
[6]
  cleaved bond: Phe8-His9, major
  fragment found: Ang I, minor
[7]
  cleaved bond: Phe8-His9, major
  fragment found: Ang I, minor
[8]
  fragment found: Ang I, minor; also recorded: Ang II, minor

## CC(C)C[C@H](NC(=O)[C@@H](NC(=O)N[C@@H](Cc1ccccc1)C(=O)O)[C@@H]1CCN=C(N)N1)C(=O)N[C@H](C=O)Cc1ccccc1 [chymostatin, Chymostatin]
chymase
  hydrolysis of N-suc-AAPF-pNA by human plasma membrane in the presence of inhibitor: completely blocked
[9]
  inhibition of Ang I induced carotid artery vasoconstriction: 80%

## angiotensin-(1-7) [Ang-(1-7)]
[4]
  binding affinity of the antibody (EC50): below detection
